Laboratory results as given in PubChem BioAssay (NCI).
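96-well plates; 48 h exposure; 5 concentrations. Endpoints by linear interpolation between flanking doses. Not reached: highest tested concentration assigned. GI50 = concentration required for 50% inhibition of growth. TGI: concentration producing complete growth inhibition.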

Experiments:
Test in all cases: inhibition of tumour cell growth, NCI panel, 48 h
[1] = test system: HCT-116 colon
[2] = test system: BT-549 breast
[3] = test system: SF-268 CNS
[4] = test system: NCI-H226 lung
[5] = test system: HOP-92 NSCLC
[6] = test system: SR leukemia
[7] = test system: ACHN renal
[8] = test system: SW-620 colon
[9] = test system: OVCAR-3 ovarian
[10] = test system: HT29 colon
[11] = test system: HCC-2998 colon
[12] = test system: OVCAR-8 ovarian
[13] = test system: MDA-MB-435
[14] = test system: SK-OV-3 ovarian
[15] = test system: 786-0 renal
[16] = test system: SK-MEL-5 melanoma
[17] = test system: SN12C renal
[18] = test system: T-47D breast
[19] = test system: OVCAR-4 ovarian
[20] = test system: RPMI-8226 leukemia
[21] = test system: HOP-62 NSCLC
[22] = test system: CCRF-CEM leukemia
[23] = test system: TK-10 renal
[24] = test system: SK-MEL-28 melanoma
[25] = test system: KM12 colon
[26] = test system: MOLT-4 leukemia
[27] = test system: HS 578T breast
[28] = test system: LOX IMVI melanoma
[29] = test system: SK-MEL-2 melanoma
[30] = test system: NCI-H23 lung
[31] = test system: SF-539 CNS
[32] = test system: M14 melanoma
[33] = test system: EKVX NSCLC
[34] = test system: SNB-75 CNS
[35] = test system: A498 renal
[36] = test system: MDA-MB-231 breast
[37] = test system: NCI-H460 lung
[38] = test system: CAKI-1 renal
[39] = test system: SNB-19 CNS
[40] = test system: UACC-257 melanoma
[41] = test system: COLO 205 colon
[42] = test system: PC-3 prostate
[43] = test system: MALME-3M melanoma
[44] = test system: SF-295 CNS
[45] = test system: HCT-15 colon
[46] = test system: DU-145 prostate
[47] = test system: NCI/ADR-RES ovarian
[48] = test system: IGROV1 ovarian
[49] = test system: OVCAR-5 ovarian
[50] = test system: U251 CNS
[51] = test system: RXF 393 renal
[52] = test system: MCF7 breast
[53] = test system: NCI-H522 lung
[54] = test system: A549 NSCLC
[55] = test system: HL-60(TB) leukemia
[56] = test system: UO-31 renal
[57] = test system: K-562 leukemia
[58] = test system: UACC-62 melanoma

## CC(=Nc1ccncc1)C(C)=Nc1ccncc1
[1]
  TGI: 83.9 µM
[2]
  TGI: 42.3 µM
[3]
  TGI: > 100 µM
[4]
  TGI: > 100 µM
[5]
  TGI: 83.5 µM
[6]
  TGI: 67 µM
[7]
  TGI: 27.5 µM
[8]
  TGI: > 100 µM
[9]
  TGI: 28.8 µM
[10]
  TGI: 38.2 µM
[11]
  TGI: 47.9 µM
[12]
  TGI: > 100 µM
[13]
  TGI: 97.7 µM
[14]
  TGI: > 100 µM
[15]
  TGI: > 100 µM
[16]
  TGI: 47.1 µM
[17]
  TGI: 30 µM
[18]
  TGI: 77.7 µM
[19]
  TGI: 27.4 µM
[20]
  TGI: 45 µM
[21]
  TGI: 49.4 µM
[22]
  TGI: 85.5 µM
[23]
  TGI: > 100 µM
[24]
  TGI: > 100 µM
[25]
  TGI: > 100 µM
[26]
  TGI: 52.7 µM
[27]
  TGI: 98.9 µM
[28]
  TGI: 42.1 µM
[29]
  TGI: 45.1 µM
[30]
  TGI: 32.6 µM
[31]
  TGI: 35.1 µM
[32]
  TGI: 34.8 µM
[33]
  TGI: 48.7 µM
[34]
  TGI: > 100000 nM
[35]
  TGI: > 100000 nM
[36]
  TGI: 62.6 µM
[37]
  TGI: > 100 µM
[38]
  TGI: 30.4 µM
[39]
  TGI: 68.5 µM
[40]
  TGI: > 100 µM
[41]
  TGI: 31 µM
[42]
  TGI: 38.9 µM
[43]
  TGI: 37.3 µM
[44]
  TGI: > 100 µM
[45]
  TGI: 27.5 µM
[46]
  TGI: > 100 µM
[47]
  TGI: > 100 µM
[48]
  TGI: 35.3 µM
[49]
  TGI: 31.9 µM
[50]
  TGI: 69.1 µM
[51]
  TGI: 59.8 µM
[52]
  TGI: 38.3 µM
[53]
  TGI: 35.3 µM
[54]
  TGI: > 100 µM
[55]
  TGI: 87.2 µM
[56]
  TGI: 30.8 µM
[57]
  TGI: > 100 µM

## CC(C)[C@H]1C(=O)N[C@@H](CCCN=C(N)N)C(=O)NCC(=O)N[C@@H](CC(=O)O)C(=O)N[C@H](Cc2ccccc2)C(=O)N1C
[1]
  GI50: 1860 nM
  TGI: > 33.4 µM
[2]
  GI50: 1600 nM
  TGI: 3.13 µM
[3]
  GI50: 7.07 µM
  TGI: > 100 µM
[4]
  GI50: 9.21 µM
  TGI: > 100 µM
[5]
  GI50: 385 nM
  TGI: 2.47 µM
[6]
  GI50: > 100 µM
  TGI: > 100 µM
[7]
  GI50: > 100 µM
  TGI: > 100 µM
[8]
  TGI: > 100 µM
[9]
  GI50: > 100 µM
  TGI: > 100 µM
[10]
  GI50: > 61.1 µM
  TGI: > 100 µM
[11]
  GI50: > 100 µM
  TGI: > 100 µM
[12]
  GI50: 7.35 µM
  TGI: > 100 µM
[13]
  GI50: 289 nM
  TGI: 0.895 µM
[14]
  GI50: > 100 µM
  TGI: > 100 µM
[15]
  GI50: 5.54 µM
  TGI: > 100 µM
[16]
  GI50: 366 nM
  TGI: 1.33 µM
[17]
  GI50: 2330 nM
  TGI: > 25.3 µM
[18]
  GI50: 2870 nM
  TGI: > 29.4 µM
[19]
  GI50: > 100 µM
  TGI: > 100 µM
[20]
  GI50: > 100 µM
  TGI: > 100 µM
[21]
  GI50: 7.04 µM
  TGI: > 100 µM
[22]
  GI50: > 100 µM
  TGI: > 100 µM
[23]
  GI50: 1430 nM
  TGI: 4.06 µM
[24]
  GI50: 31.6 µM
  TGI: > 100 µM
[25]
  GI50: > 100 µM
  TGI: > 100 µM
[26]
  GI50: > 100 µM
  TGI: > 100 µM
[27]
  GI50: 19.8 µM
  TGI: > 100 µM
[28]
  GI50: 15.5 µM
  TGI: > 100 µM
[29]
  GI50: 1350 nM
  TGI: 5.78 µM
[30]
  GI50: 10.6 µM
  TGI: 67.6 µM
[31]
  GI50: > 100 µM
  TGI: > 100 µM
[32]
  GI50: > 100 µM
  TGI: > 100 µM
[34]
  GI50: 120 nM
  TGI: 279 nM
[35]
  GI50: 182 nM
  TGI: 1050 nM
[36]
  GI50: 1830 nM
  TGI: > 28.9 µM
[37]
  GI50: 31.6 µM
  TGI: > 100 µM
[38]
  GI50: > 28.7 µM
  TGI: > 100 µM
[39]
  GI50: 2660 nM
  TGI: > 100 µM
[40]
  GI50: > 27.9 µM
  TGI: > 100 µM
[41]
  GI50: > 100 µM
  TGI: > 100 µM
[58]
  GI50: > 100 µM
  TGI: > 100 µM
[42]
  GI50: > 100 µM
  TGI: > 100 µM
[43]
  GI50: > 100 µM
  TGI: > 100 µM
[44]
  GI50: > 82.7 µM
  TGI: > 100 µM
[45]
  GI50: 3.09 µM
  TGI: > 74.8 µM
[46]
  GI50: 7.66 µM
  TGI: 70.6 µM
[47]
  GI50: > 100 µM
  TGI: > 100 µM
[48]
  GI50: > 62.2 µM
  TGI: > 100 µM
[49]
  GI50: 1340 nM
  TGI: > 100 µM
[50]
  GI50: > 23.2 µM
  TGI: > 100 µM
[51]
  GI50: 2630 nM
  TGI: > 100 µM
[52]
  GI50: 1400 nM
  TGI: 3.32 µM
[53]
  GI50: 2320 nM
  TGI: 5.7 µM
[54]
  GI50: 31.8 µM
  TGI: > 100 µM
[55]
  GI50: > 100 µM
  TGI: > 100 µM
[56]
  GI50: > 73.2 µM
  TGI: > 100 µM
[57]
  GI50: > 100 µM
  TGI: > 100 µM
